How the values were obtained:
C. violaceum CV026 = assay: Preliminary screening of bacterial quorum sensing agonistic / inhibitory activity on LB plate (purple stain / white circle); assay type: cell-based; conditions: for Regulatory activity (bacterial quorum sensing regulatory activity): 1 μl of 0.065M compound spotted on plate, inhibitory screen with inducer C6-HSL, 30° C., 16-18 h; for Effect on bacterial quorum sensing (summary in words): summary of the activity evaluation experiments
Procedure: 1.1 Preparation work: different compounds to be tested (Compounds 1-40 prepared in Example 1-40) were weighted and then were dissolved in 200 μl DMSO (dimethyl sulfoxide) to prepare a solution at a concentration of 0.065M. 5.0 mg inducer, N-hexanoyl homoserine lactone (C6-HSL, purchased from Sigma Company), was weighted and was dissolved in 200 μl DMSO (at a concentration of 0.125M), and the compounds and the inducer were stored at 4 for further use. C. violaceum CV026 (donated by Professor McLean J C from Texas State University) in LB culture medium (LB culture medium consisting of 1% (percentage by mass) tryptone, 0.5% (percentage by mass) yeast extract, 1% (percentage by mass) NaCl and water) was cultured under shaking in a shaker at 30, 200 rpm to get the culture medium for further use.
1.2 Method for preliminary screening of compounds having agonistic activity: 400 μl C. violaceum CV026 (at a bacterial concentration of 1×10^8/ml) was added to 5 ml melted semi-solid LB culture medium, and was mixed well; the mixed culture medium was poured into a solid LB plate; when the mixed culture medium was solidified on the plate, lattice was made thereon; 1 μl of the dissolved compounds to be tested (Compounds 1-40 in Examples 1-40, at a concentration of 0.065M) was spotted on the plate; when the compounds on the plate was dried in air, the plate was put in a 30° C. oven upside down and was cultured for a period of 16-18 h. If the compound to be tested has an agonistic effect on C. violaceum CV026 on the LB plate, purple stain will be induced on the LB plate. The agonistic activity of a compound is determined depending on whether purple stain is induced for C. violaceum CV026 on LB plate as well as the purple depth.
1.3 Method for preliminary screening of compounds having inhibitory activity: the inducer C6-HSL was diluted gradiently to 1000 times by means of 2-fold dilution; 15 μl diluted inducer and 400 μl C. violaceum CV026 in exponential phase (at a bacterial concentration of 1×10^8/ml) were mixed well and then were added to a 5 ml melted semi-solid LB culture medium; the mixture of inducer, C. violaceum, and semi-solid LB was poured onto a solid LB plate; when the mixture was solidified on the plate, lattice was made thereon: 1 μl of the dissolved compounds to be tested (Compounds 1-40 in Examples 1-40, at a concentration of 0.065M) was spotted on the plate; when the compounds on the plate were dried in air, the plate was put in a 30° C. oven upside down and was cultured for a period of 16-18 h. If the compound to be tested has an inhibitory effect on C. violaceum CV026 on the LB plate, white circle will appear on the LB plate. The inhibitory activity of a compound is preliminary determined depending on the size of the white circle appeared after C. violaceum CV026 was inhibited on LB plate.
It is found after preliminary screening that 22 compounds according to the invention have bacterial quorum sensing regulatory activity, and the screening result was shown in Table 1.

SMILES | melting point | Regulatory activity (bacterial quorum sensing regulatory activity) (C. violaceum CV026) | Effect on bacterial quorum sensing (summary in words) (C. violaceum CV026)
CCCCCCCNC(=O)NN1CCOC1=O [Compound 18, 1-(2-oxo-oxazolidin-3-yl)-3-heptyl urea] | 68 to 69 °C | − | inhibitory effect on bacterial quorum sensing
O=C(Nc1cccc(Br)c1)NN1CCOC1=O | 197 to 199 °C |  | 
O=C(Cc1ccc([N+](=O)[O-])cc1)NN1CCOC1=O [Compound 33, 2-(4-nitrophenyl)-N-(2-oxo-oxazolidin-3-yl)acetamide] | 180 to 183 °C | + | 
O=C(CCc1ccc([N+](=O)[O-])cc1)NN1CCOC1=O [Compound 36] | 143 to 145 °C | + | 
COc1ccc(CC(=O)NN2CCOC2=O)cc1 [Compound 32, 2-(4-methoxyphenyl)-N-(2-oxo-oxazolidin-3-yl)acetamide] | 90 to 92 °C | + | 
O=C(NN1CCOC1=O)c1ccc(F)cc1 [Compound 9, 4-fluoro-N-(2-oxo-oxazolidin-3-yl)benzamide] |  | + | 
Cc1ccc(NC(=O)NN2CCOC2=O)cc1 | 205 to 207 °C |  | 
CCCCCCCCNC(=O)NN1CCOC1=O [Compound 19, 1-(2-oxo-oxazolidin-3-yl)-3-octyl urea] | 64 to 65 °C | − | inhibitory effect on bacterial quorum sensing
O=C(NCc1ccccc1)NN1CCOC1=O [Compound 23, 1-benzyl-3-(2-oxo-oxazolidin-3-yl)urea] | 160 to 161 °C |  | 
CC(C)(C)c1ccc(C(=O)NN2CCOC2=O)cc1 [Compound 2, 4-tert-butyl-N-(2-oxo-oxazolidin-3-yl)benzamide] | 187 to 189 °C | − | inhibitory effect on bacterial quorum sensing
O=C(NCCc1ccccc1)NN1CCOC1=O [Compound 24, 1-(2-oxo-oxazolidin-3-yl)phenyl ethyl urea] | 123 to 125 °C |  | 
CCCCCNC(=O)NN1CCOC1=O [Compound 16, 1-(2-oxo-oxazolidin-3-yl)-3-pentyl urea] | 83 to 86 °C |  | 
O=C(CCc1ccc(Cl)cc1)NN1CCOC1=O [Compound 39] | 134 to 136 °C | + | 
Cc1cccc(NC(=O)NN2CCOC2=O)c1 | 191 to 192 °C |  | 
O=C(Nc1ccc(OC(F)(F)F)cc1)NN1CCOC1=O | 205 to 206 °C |  | 
O=C(NN1CCOC1=O)c1ccccc1Cl [Compound 4, 2-chloro-N-(2-oxo-oxazolidin-3-yl)benzamide] | 166 to 168 °C | ± | both an agonizing effect and an inhibitory effect
O=C(CCc1ccccc1)NN1CCOC1=O [Compound 37] |  | + | 
O=C(Nc1ccc(Br)cc1)NN1CCOC1=O [Compound 20, 1-(4-bromophenyl)-3-(2-oxo-oxazolidin-3-yl)urea] | 212 to 215 °C |  | 

SMILES | melting point | Regulatory activity (bacterial quorum sensing regulatory activity) (C. violaceum CV026) | Effect on bacterial quorum sensing (summary in words) (C. violaceum CV026)
Cc1ccc(CCC(=O)NN2CCOC2=O)cc1 [Compound 38] | 146 to 148 °C | + | 
O=C(NN1CCOC1=O)c1cccc(F)c1 | 166 to 169 °C |  | 
CCCCNC(=O)NN1CCOC1=O [Compound 15, 1-(2-oxo-oxazolidin-3-yl)-3-butyl urea] | 98 to 100 °C |  | 
O=C(NN1CCOC1=O)c1cccc(Cl)c1 [Compound 5, 3-chloro-N-(2-oxo-oxazolidin-3-yl)benzamide] | 151 to 152 °C | + | 
Cc1cccc(C(=O)NN2CCOC2=O)c1 [Compound 8, 3-methyl-N-(2-oxo-oxazolidin-3-yl)benzamide] | 148 to 150 °C | + | 
O=C(NN1CCOC1=O)c1ccccc1F [Compound 6, 2-fluoro-N-(2-oxo-oxazolidin-3-yl)benzamide] | 124 to 127 °C |  | 
Cc1ccc(CC(=O)NN2CCOC2=O)cc1 [Compound 35, 2-(4-tolyl)-N-(2-oxo-oxazolidin-3-yl)acetamide] | 108 to 111 °C | + | 
O=C(NC1CCCCC1)NN1CCOC1=O [Compound 22, 1-cyclohexyl-3-(2-oxo-oxazolidin-3-yl)urea] | 203 to 205 °C |  | 
CCCCCCNC(=O)NN1CCOC1=O [Compound 17, 1-(2-oxo-oxazolidin-3-yl)-3-hexyl urea] | 74 to 75 °C |  | 
O=C(NN1CCOC1=O)c1ccc(CCl)cc1 [Compound 3, 4-chloromethyl-N-(2-oxo-oxazolidin-3-yl)benzamide] | 206 to 208 °C | − | inhibitory effect on bacterial quorum sensing
O=C(Cc1ccc(F)cc1)NN1CCOC1=O [Compound 31, 2-(4-fluorophenyl)-N-(2-oxo-oxazolidin-3-yl)acetamide] | 131 to 134 °C | + | 
O=C1OCCN1NC(=S)Nc1ccccc1 [Compound 27, 1-(2-oxo-oxazolidin-3-yl)phenylthiourea] | 191 to 193 °C |  | 
O=C(CCCc1ccccc1)NN1CCOC1=O [Compound 40, N-(2-oxo-oxazolidin-3-yl)-4-phenyl butanamide] | 104 to 107 °C | + | 
O=C(NN1CCOC1=O)c1ccc(F)cc1 [Compound 1, 4-fluoro-N-(2-oxo-oxazolidin-3-yl)benzamide] | 189 to 192 °C |  | 
O=C1OCCN1NC(=S)Nc1ccc(F)cc1 [Compound 28, 1-(4-fluorophenyl)-3-(2-oxo-oxazolidin-3-yl)sulfourea] | 190 to 191 °C |  | 
O=C(NN1CCOC1=O)c1ccccc1C(F)(F)F [Compound 10, 2-trifluoromethyl-N-(2-oxo-oxazolidin-3-yl)benzamide] | 139 to 141 °C | + | 
O=C(Cc1ccc(Cl)cc1)NN1CCOC1=O [Compound 34, 2-(4-chlorophenyl)-N-(2-oxo-oxazolidin-3-yl)acetamide] | 124 to 127 °C | + | 
